Experimental data published in PubChem BioAssay (NCI).
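Briefly, cells in 96-well plates were exposed to five compound concentrations for 48 h, and endpoints were estimated by linear interpolation. TGI is the concentration that stops growth completely.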

What was measured:
Experiment in all cases: growth of human tumour cells (NCI), 48 h
786-0 renal = system: 786-0 renal
A498 renal = system: A498 renal
A549 NSCLC = system: A549 NSCLC
ACHN renal = system: ACHN renal
BT-549 breast = system: BT-549 breast
CAKI-1 renal = system: CAKI-1 renal
CCRF-CEM leukemia = system: CCRF-CEM leukemia
COLO 205 colon = system: COLO 205 colon
DU-145 prostate = system: DU-145 prostate
EKVX NSCLC = system: EKVX NSCLC
HCC-2998 colon = system: HCC-2998 colon
HCT-116 colon = system: HCT-116 colon
HCT-15 colon = system: HCT-15 colon
HL-60(TB) leukemia = system: HL-60(TB) leukemia
HOP-62 NSCLC = system: HOP-62 NSCLC
HOP-92 NSCLC = system: HOP-92 NSCLC
HS 578T breast = system: HS 578T breast
HT29 colon = system: HT29 colon
IGROV1 ovarian = system: IGROV1 ovarian
K-562 leukemia = system: K-562 leukemia
KM12 colon = system: KM12 colon
LOX IMVI melanoma = system: LOX IMVI melanoma
M14 melanoma = system: M14 melanoma
MALME-3M melanoma = system: MALME-3M melanoma
MCF7 breast = system: MCF7 breast
MDA-MB-231 breast = system: MDA-MB-231 breast
MDA-MB-435 = system: MDA-MB-435
MDA-N = system: MDA-N
MOLT-4 leukemia = system: MOLT-4 leukemia
NCI-H226 lung = system: NCI-H226 lung
NCI-H23 lung = system: NCI-H23 lung
NCI-H460 lung = system: NCI-H460 lung
NCI-H522 lung = system: NCI-H522 lung
NCI/ADR-RES ovarian = system: NCI/ADR-RES ovarian
OVCAR-3 ovarian = system: OVCAR-3 ovarian
OVCAR-4 ovarian = system: OVCAR-4 ovarian
OVCAR-5 ovarian = system: OVCAR-5 ovarian
OVCAR-8 ovarian = system: OVCAR-8 ovarian
PC-3 prostate = system: PC-3 prostate
RPMI-8226 leukemia = system: RPMI-8226 leukemia
RXF 393 renal = system: RXF 393 renal
SF-268 CNS = system: SF-268 CNS
SF-295 CNS = system: SF-295 CNS
SF-539 CNS = system: SF-539 CNS
SK-MEL-2 melanoma = system: SK-MEL-2 melanoma
SK-MEL-28 melanoma = system: SK-MEL-28 melanoma
SK-MEL-5 melanoma = system: SK-MEL-5 melanoma
SK-OV-3 ovarian = system: SK-OV-3 ovarian
SN12C renal = system: SN12C renal
SNB-19 CNS = system: SNB-19 CNS
SNB-75 CNS = system: SNB-75 CNS
SW-620 colon = system: SW-620 colon
T-47D breast = system: T-47D breast
TK-10 renal = system: TK-10 renal
U251 CNS = system: U251 CNS
UACC-257 melanoma = system: UACC-257 melanoma
UACC-62 melanoma = system: UACC-62 melanoma
UO-31 renal = system: UO-31 renal

SMILES: C=CS(=O)(=O)c1c2cc(OC)ccc2nc2ccc(OC)cc12
- TGI (786-0 renal): 7.82 µM
- TGI (A498 renal): 27.7 µM
- TGI (A549 NSCLC): > 47.1 µM
- TGI (ACHN renal): 24.5 µM
- TGI (BT-549 breast): 22.4 µM
- TGI (CAKI-1 renal): 14.9 µM
- TGI (CCRF-CEM leukemia): > 23.4 µM
- TGI (COLO 205 colon): > 42.3 µM
- TGI (DU-145 prostate): 19.8 µM
- TGI (EKVX NSCLC): 21.1 µM
- TGI (HCC-2998 colon): 24.8 µM
- TGI (HCT-116 colon): 5.02 µM
- TGI (HCT-15 colon): > 33.9 µM
- TGI (HL-60(TB) leukemia): > 100 µM
- TGI (HOP-62 NSCLC): 32.8 µM
- TGI (HOP-92 NSCLC): > 51.1 µM
- TGI (HS 578T breast): 11.9 µM
- TGI (HT29 colon): 10.7 µM
- TGI (IGROV1 ovarian): 12.5 µM
- TGI (K-562 leukemia): > 23.4 µM
- TGI (KM12 colon): 28.8 µM
- TGI (LOX IMVI melanoma): 7.16 µM
- TGI (M14 melanoma): > 49.7 µM
- TGI (MALME-3M melanoma): 4.89 µM
- TGI (MCF7 breast): > 25.7 µM
- TGI (MDA-MB-231 breast): 50.7 µM
- TGI (MDA-MB-435): 22.7 µM
- TGI (MDA-N): 11.3 µM
- TGI (MOLT-4 leukemia): > 100 µM
- TGI (NCI-H226 lung): 35.1 µM
- TGI (NCI-H23 lung): 28.2 µM
- TGI (NCI-H460 lung): > 44.3 µM
- TGI (NCI-H522 lung): 3.74 µM
- TGI (NCI/ADR-RES ovarian): 76.2 µM
- TGI (OVCAR-3 ovarian): 15.8 µM
- TGI (OVCAR-4 ovarian): 30 µM
- TGI (OVCAR-5 ovarian): > 36.9 µM
- TGI (OVCAR-8 ovarian): 15.4 µM
- TGI (PC-3 prostate): 23.3 µM
- TGI (RPMI-8226 leukemia): 7.28 µM
- TGI (RXF 393 renal): 18.4 µM
- TGI (SF-268 CNS): 33.4 µM
- TGI (SF-295 CNS): 32.3 µM
- TGI (SF-539 CNS): > 21.2 µM
- TGI (SK-MEL-2 melanoma): 51.3 µM
- TGI (SK-MEL-28 melanoma): 45.6 µM
- TGI (SK-MEL-5 melanoma): 27 µM
- TGI (SK-OV-3 ovarian): 33.1 µM
- TGI (SN12C renal): 8.21 µM
- TGI (SNB-19 CNS): 45.1 µM
- TGI (SNB-75 CNS): 26.3 µM
- TGI (SW-620 colon): > 20.7 µM
- TGI (T-47D breast): 35.5 µM
- TGI (TK-10 renal): 23.5 µM
- TGI (U251 CNS): > 52.6 µM
- TGI (UACC-257 melanoma): 24 µM
- TGI (UACC-62 melanoma): 31.3 µM
- TGI (UO-31 renal): > 27.4 µM

SMILES: CCCCCc1cc2cc3c(c(O)c2c(=O)[nH]1)C1(CC3)C(O)=c2c(=O)c3c(=O)cc(OC)c(=O)c=3c(=O)c2=C1O (centres undefined)
- TGI (786-0 renal): 2.91 µM
- TGI (A498 renal): 5.26 µM
- TGI (A549 NSCLC): 6.06 µM
- TGI (ACHN renal): 2.18 µM
- TGI (BT-549 breast): 3.6 µM
- TGI (CAKI-1 renal): 1.8 µM
- TGI (CCRF-CEM leukemia): 0.884 µM
- TGI (COLO 205 colon): 0.449 µM
- TGI (DU-145 prostate): 3.46 µM
- TGI (EKVX NSCLC): 3.36 µM
- TGI (HCC-2998 colon): 3.92 µM
- TGI (HCT-116 colon): 2.8 µM
- TGI (HCT-15 colon): 2.24 µM
- TGI (HL-60(TB) leukemia): 1.41 µM
- TGI (HOP-62 NSCLC): 12.8 µM
- TGI (HOP-92 NSCLC): 1.25 µM
- TGI (HS 578T breast): 15.3 µM
- TGI (HT29 colon): 2.9 µM
- TGI (IGROV1 ovarian): 4.4 µM
- TGI (K-562 leukemia): 2.29 µM
- TGI (KM12 colon): 5.4 µM
- TGI (LOX IMVI melanoma): 2.65 µM
- TGI (M14 melanoma): 3.22 µM
- TGI (MALME-3M melanoma): 2.54 µM
- TGI (MCF7 breast): 2.23 µM
- TGI (MDA-MB-231 breast): 2.16 µM
- TGI (MDA-MB-435): 3.93 µM
- TGI (MDA-N): 3.71 µM
- TGI (MOLT-4 leukemia): 4.48 µM
- TGI (NCI-H226 lung): 4.58 µM
- TGI (NCI-H23 lung): 2.77 µM
- TGI (NCI-H460 lung): 3.35 µM
- TGI (NCI-H522 lung): 1.69 µM
- TGI (NCI/ADR-RES ovarian): 7.35 µM
- TGI (OVCAR-3 ovarian): 1.93 µM
- TGI (OVCAR-4 ovarian): 3.02 µM
- TGI (OVCAR-5 ovarian): 5.86 µM
- TGI (OVCAR-8 ovarian): 3.26 µM
- TGI (PC-3 prostate): 2.24 µM
- TGI (RPMI-8226 leukemia): 2.42 µM
- TGI (RXF 393 renal): 3.55 µM
- TGI (SF-268 CNS): 3.56 µM
- TGI (SF-295 CNS): 18.7 µM
- TGI (SK-MEL-2 melanoma): 3.3 µM
- TGI (SK-MEL-28 melanoma): 4.26 µM
- TGI (SK-MEL-5 melanoma): 2.22 µM
- TGI (SK-OV-3 ovarian): 9.96 µM
- TGI (SN12C renal): 3.42 µM
- TGI (SNB-19 CNS): 3.74 µM
- TGI (SNB-75 CNS): 4.68 µM
- TGI (SW-620 colon): 3.31 µM
- TGI (T-47D breast): 3.58 µM
- TGI (U251 CNS): 2.75 µM
- TGI (UACC-257 melanoma): 2.14 µM
- TGI (UACC-62 melanoma): 4.82 µM
- TGI (UO-31 renal): 2.38 µM
